Measured values taken from US4410516A, “1-N(αHydroxy-ω-aminoalkanoyl) derivatives of 5,3',4'-trideoxy- or 5,3', 4'-trideoxy-6'-N- methyl- or 5, 3', 4',6"-tetradeoxykannamyci B and production thereof” (Zaidan Hojin Biseibutsu Kagaku Kenkyu Kai, priority 1981, dated 1983).
Converted amounts (≈) assume the structure as drawn. Like-named read-outs stand apart in the source and are kept apart here.

What was measured:
[1] = system: Staphylococcus aureus Smith; test: Minimum inhibitory concentration, serial dilution on nutrient agar; assay type: cell-based; details: 37° C., 18 hours incubation
[2] = system: Staphylococcus epidermidis 109; test: as above; assay type: cell-based; details: Staphylococcus epidermidis, 109; nutrient agar, 37° C., 18 hours incubation; read-out: MIC
[3] = system: Bacillus subtilis NRRL B-558; test: as above; assay type: cell-based; details: NRRLB558, 37° C., 18 hours incubation
[4] = system: Escherichia coli K-12 R 388; test: as above; assay type: cell-based; details: K12R388, 18 h
[5] = system: Escherichia coli K-12 ML 1629; test: as above; assay type: cell-based
[6] = system: Escherichia coli K-12 ML 1410; test: as above; assay type: cell-based
[7] = system: Escherichia coli K-12 LA 290 R55; test: as above; assay type: cell-based; details: K12LA290R55, 18 h
Escherichia coli W677 = test: as above; assay type: cell-based
Escherichia coli JR255 = test: as above; assay type: cell-based
[8] = system: Klebsiella pneumoniae 22 #3038; test: as above; assay type: cell-based
[9] = system: Shigella dysenteriae JS 11910; test: as above; assay type: cell-based; details: JS11910, 18 h
[10] = system: Salmonella enteritidis 1891; test: as above; assay type: cell-based; details: Salmonella enterica
Proteus vulgaris OX19 = test: as above; assay type: cell-based; details: 37° C., 18 hours incubation
Proteus rettgeri GN311 = test: as above; assay type: cell-based; details: Providencia rettgeri, 37° C., 18 hours incubation
Proteus rettgeri GN466 = test: as above; assay type: cell-based; details: Providencia rettgeri
Serratia marcescens = test: as above; assay type: cell-based; details: 37° C., 18 hours incubation
Providencia 2991 = test: as above; assay type: cell-based; details: 37° C., 18 hours incubation
[11] = system: Pseudomonas aeruginosa A3; test: as above; assay type: cell-based; details: 37° C., 18 hours incubation
[12] = system: Pseudomonas aeruginosa H11; test: as above; assay type: cell-based
[13] = system: Pseudomonas aeruginosa GN315; test: as above; assay type: cell-based
[14] = system: Pseudomonas aeruginosa B-13; test: as above; assay type: cell-based; details: B13, 37° C., 18 hours incubation
[15] = system: Pseudomonas aeruginosa PST1; test: as above; assay type: cell-based
[16] = system: Pseudomonas aeruginosa ROS134/PU21; test: as above; assay type: cell-based; details: ROS134/PU21, 18 h
bacteria = details: in words, earlier work / other filings; cited from earlier work
[17] = Acute toxicity by intravenous injection in mice; details: mouse, in vivo
[18] = system: Escherichia coli K-12 ML 1410 R81; test: Minimum inhibitory concentration, serial dilution on nutrient agar; assay type: cell-based; details: 18 h
[19] = K12ML1629, nutrient agar, 37° C., 18 hours incubation, read-out: MIC
[20] = W677, nutrient agar, 37° C., 18 hours incubation, read-out: MIC
[21] = JR255, nutrient agar, 37° C., 18 hours incubation, read-out: MIC
[22] = nutrient agar, 37° C., 18 hours incubation, read-out: MIC
[23] = PST1, nutrient agar, 37° C., 18 hours incubation, read-out: MIC
[24] = GN466, nutrient agar, 37° C., 18 hours incubation, read-out: MIC
[25] = GN315, nutrient agar, 37° C., 18 hours incubation, read-out: MIC
[26] = H11, nutrient agar, 37° C., 18 hours incubation, read-out: MIC

| SMILES | MIC [1] [µg/mL] | MIC [2] [µg/mL] | MIC [3] [µg/mL] | MIC [4] [µg/mL] | MIC [5, 19] [µg/mL] | MIC ([6]; K12ML1410, 18 h) [µg/mL] | MIC [7] [µg/mL] | MIC (Escherichia coli JR255; [21]) [µg/mL] | MIC [9] [µg/mL] | MIC (Proteus vulgaris OX19) [µg/mL] | MIC (Proteus rettgeri GN311) [µg/mL] | MIC (Serratia marcescens) [µg/mL] | MIC (Providencia 2991) [µg/mL] | MIC [11] [µg/mL] | MIC ([13]; GN315, 18 h) [µg/mL] | MIC [14] [µg/mL] | MIC [15, 23] [µg/mL] | MIC [16] [µg/mL] | MIC ([8]; 18 h) [µg/mL] | LD50 [17] [mg/kg] | other results |
| --- | --- | --- | --- | --- | --- | --- | --- | --- | --- | --- | --- | --- | --- | --- | --- | --- | --- | --- | --- | --- | --- |
| NCC[C@H](O)C(=O)N[C@@H]1C[C@H](N)[C@@H](O[C@H]2O[C@H](CN)CC[C@H]2N)[C@H](O)[C@H]1O[C@H]1O[C@H](CO)[C@@H](O)[C@H](N)[C@H]1O [Habekacin, 1-N-[(S)-4-amino-2-hydroxybutyryl]-3',4'-dideoxykanamycin B, reference compound] | < 0.2 | 0.78 (≈ 1.41 µM) | < 0.2 | 1.56 (≈ 2.82 µM) | 3.13 (≈ 5.66 µM) | 6.25 (≈ 11.3 µM) | 6.25 (≈ 11.3 µM) | 3.13 (≈ 5.66 µM) | 12.5 (≈ 22.6 µM) | 0.78 (≈ 1.41 µM) | 50 (≈ 90.5 µM) | 50 (≈ 90.5 µM) | 50 (≈ 90.5 µM) | 3.13 (≈ 5.66 µM) | 6.25 (≈ 11.3 µM) | 25 (≈ 45.2 µM) | 25 (≈ 45.2 µM) | > 100 | – | – | MIC (Escherichia coli W677; [20]): 3.13 µg/mL (≈ 5.66 µM); MIC [8, 22]: 3.13 µg/mL (≈ 5.66 µM); MIC [10, 22]: 3.13 µg/mL (≈ 5.66 µM); MIC (Proteus rettgeri GN466; GN466, 18 h): 12.5 µg/mL (≈ 22.6 µM); MIC ([12]; H11, 18 h): 12.5 µg/mL (≈ 22.6 µM); antibacterial activity (bacteria): effective against dibekacin-resistant bacteria |
| NCC(O)C(=O)N[C@@H]1C[C@H](N)[C@@H](O[C@H]2O[C@H](CN)CC[C@H]2N)C[C@H]1O[C@H]1O[C@H](CO)[C@@H](O)[C@H](N)[C@H]1O (stereo partly drawn) [AHP-trideoxyKMB, 1-N-[(RS)-3-amino-2-hydroxypropionyl]-5,3',4'-trideoxykanamycin B] | < 0.2 | 0.78 (≈ 1.49 µM) | < 0.2 | 1.56 (≈ 2.99 µM) | 3.13 (≈ 5.99 µM) | – | 3.13 (≈ 5.99 µM) | 1.56 (≈ 2.99 µM) | 6.25 (≈ 12 µM) | 0.78 (≈ 1.49 µM) | 25 (≈ 47.8 µM) | 25 (≈ 47.8 µM) | 25 (≈ 47.8 µM) | 0.78 (≈ 1.49 µM) | – | 12.5 (≈ 23.9 µM) | – | > 100 | 6.25 (≈ 12 µM) | 25 to 50 | MIC ([6]; K12ML1410, nutrient agar, 37° C., 18 hours incubation, read-out: MIC): 1.56 µg/mL (≈ 2.99 µM); MIC (Escherichia coli W677; [20]): 1.56 µg/mL (≈ 2.99 µM); MIC ([10]; 18 h): 6.25 µg/mL (≈ 12 µM); MIC (Proteus rettgeri GN466; [24]): 3.13 µg/mL (≈ 5.99 µM); MIC ([12]; H11, 18 h): 6.25 µg/mL (≈ 12 µM); MIC [13, 25]: 50 µg/mL (≈ 95.7 µM); MIC ([15]; PST1, 18 h): 6.25 µg/mL (≈ 12 µM) |
| CNC[C@@H]1CC[C@@H](N)[C@@H](O[C@H]2C[C@@H](O[C@H]3O[C@H](CO)[C@@H](O)[C@H](N)[C@H]3O)[C@H](NC(=O)C(O)CN)C[C@@H]2N)O1 (stereo partly drawn) [AHP-trideoxyMKMB, 1-N-[(RS)-3-amino-2-hydroxypropionyl]-5,3',4'-trideoxy-6'-N-methylkanamycin B] | < 0.2 | < 0.2 | 0.39 (≈ 0.727 µM) | 1.56 (≈ 2.91 µM) | – | 3.13 (≈ 5.83 µM) | 6.25 (≈ 11.6 µM) | – | 6.25 (≈ 11.6 µM) | 0.78 (≈ 1.45 µM) | 25 (≈ 46.6 µM) | 12.5 (≈ 23.3 µM) | 50 (≈ 93.2 µM) | 0.78 (≈ 1.45 µM) | 3.13 (≈ 5.83 µM) | 25 (≈ 46.6 µM) | 25 (≈ 46.6 µM) | 50 (≈ 93.2 µM) | 3.13 (≈ 5.83 µM) | 50 to 100 | MIC ([5]; K12ML1629, 18 h): 3.13 µg/mL (≈ 5.83 µM); MIC [18]: 3.13 µg/mL (≈ 5.83 µM); MIC (Escherichia coli W677; W677, 18 h): 3.13 µg/mL (≈ 5.83 µM); MIC (Escherichia coli JR255; JR255, 18 h): 3.13 µg/mL (≈ 5.83 µM); MIC ([10]; 18 h): 6.25 µg/mL (≈ 11.6 µM); MIC (Proteus rettgeri GN466; [24]): 12.5 µg/mL (≈ 23.3 µM); MIC [12, 26]: 12.5 µg/mL (≈ 23.3 µM) |
| CNC[C@@H]1CC[C@@H](N)[C@@H](O[C@H]2C[C@@H](O[C@H]3O[C@H](CO)[C@@H](O)[C@H](N)[C@H]3O)[C@H](NC(=O)[C@@H](O)CCCN)C[C@@H]2N)O1 [AHV-trideoxyMKMB, 1-N-[(S)-5-amino-2-hydroxyvaleryl]-5,3',4'-trideoxy-6'-N-methylkanamycin B] | < 0.2 | < 0.2 | < 0.2 | 1.56 (≈ 2.76 µM) | – | 3.13 (≈ 5.54 µM) | 3.13 (≈ 5.54 µM) | – | 6.25 (≈ 11.1 µM) | 0.78 (≈ 1.38 µM) | 100 (≈ 177 µM) | 12.5 (≈ 22.1 µM) | 25 (≈ 44.3 µM) | 0.39 (≈ 0.691 µM) | 3.13 (≈ 5.54 µM) | 12.5 (≈ 22.1 µM) | 12.5 (≈ 22.1 µM) | 50 (≈ 88.5 µM) | 3.13 (≈ 5.54 µM) | 50 to 100 | MIC ([5]; K12ML1629, 18 h): 3.13 µg/mL (≈ 5.54 µM); MIC [18]: 3.13 µg/mL (≈ 5.54 µM); MIC (Escherichia coli W677; W677, 18 h): 1.56 µg/mL (≈ 2.76 µM); MIC (Escherichia coli JR255; JR255, 18 h): 1.56 µg/mL (≈ 2.76 µM); MIC ([10]; 18 h): 3.13 µg/mL (≈ 5.54 µM); MIC (Proteus rettgeri GN466; GN466, 18 h): 6.25 µg/mL (≈ 11.1 µM); MIC ([12]; H11, 18 h): 6.25 µg/mL (≈ 11.1 µM) |
| CNC[C@@H]1CC[C@@H](N)[C@@H](O[C@H]2C[C@@H](O[C@H]3O[C@H](CO)[C@@H](O)[C@H](N)[C@H]3O)[C@H](NC(=O)[C@@H](O)CCN)C[C@@H]2N)O1 [AHB-trideoxyMKMB, 1-N-[(S)-4-amino-2-hydroxybutyryl]-5,3',4'-trideoxy-6'-N-methylkanamycin B] | < 0.2 | < 0.2 | < 0.2 | 0.39 (≈ 0.708 µM) | 0.78 (≈ 1.42 µM) | 1.56 (≈ 2.83 µM) | 1.56 (≈ 2.83 µM) | 0.78 (≈ 1.42 µM) | 1.56 (≈ 2.83 µM) | < 0.2 | 50 (≈ 90.8 µM) | 6.25 (≈ 11.4 µM) | 12.5 (≈ 22.7 µM) | – | 3.13 (≈ 5.68 µM) | 12.5 (≈ 22.7 µM) | 12.5 (≈ 22.7 µM) | 50 (≈ 90.8 µM) | 1.56 (≈ 2.83 µM) | 50 to 100 | MIC [18]: 1.56 µg/mL (≈ 2.83 µM); MIC (Escherichia coli W677; W677, 18 h): 1.56 µg/mL (≈ 2.83 µM); MIC [10, 22]: 0.78 µg/mL (≈ 1.42 µM); MIC (Proteus rettgeri GN466; [24]): 6.25 µg/mL (≈ 11.4 µM); MIC [12, 26]: 12.5 µg/mL (≈ 22.7 µM) |
| C[C@H]1O[C@H](O[C@@H]2C[C@H](O[C@H]3O[C@H](CN)CC[C@H]3N)[C@@H](N)C[C@H]2NC(=O)[C@@H](O)CCN)[C@H](O)[C@@H](N)[C@@H]1O [AHB-tetradeoxyKMB, 1-N-[(S)-4-amino-2-hydroxybutyryl]-5,3',4',6"-tetradeoxykanamycin B] | < 0.2 | 0.78 (≈ 1.5 µM) | < 0.2 | 0.39 (≈ 0.749 µM) | 0.78 (≈ 1.5 µM) | 1.56 (≈ 3 µM) | 1.56 (≈ 3 µM) | 0.78 (≈ 1.5 µM) | 1.56 (≈ 3 µM) | 0.39 (≈ 0.749 µM) | 25 (≈ 48 µM) | 25 (≈ 48 µM) | 25 (≈ 48 µM) | 0.78 (≈ 1.5 µM) | – | 12.5 (≈ 24 µM) | 6.25 (≈ 12 µM) | 100 (≈ 192 µM) | 1.56 (≈ 3 µM) | 25 to 50 | MIC (Escherichia coli W677; [20]): 0.78 µg/mL (≈ 1.5 µM); MIC ([10]; 18 h): 3.13 µg/mL (≈ 6.01 µM); MIC (Proteus rettgeri GN466; GN466, 18 h): 1.56 µg/mL (≈ 3 µM); MIC [12, 26]: 12.5 µg/mL (≈ 24 µM); MIC [13, 25]: 100 µg/mL (≈ 192 µM) |
